Where a name gives a salt, the structure may show the parent alone.
Key:
[1] = test system: P. berghei sporozoites; assay: trail radius of gliding sporozoites (ImageJ); format: cell-based; conditions: 62.5 μM; 130-150 trail radii; p-value <0.0001
Experimental: The trail radius was measured using ImageJ and the statistical analyses to determine standard error mean and t-test were performed using GraphPad.
The gliding phenotype was altered to determine whether the compounds were having off-target effects. While quantifying the number of deposited trails, the trail diameter in the presence of compounds was altered. An altered trail diameter is more likely due to either a direct effect on the motor or an effect on sporozoite shape. The diameter of the circular trails deposited by the parasites in the DMSO control was measured and in the presence of three compounds at 62.5 μM (FIG. 8). This concentration was chosen because at higher concentrations, there were not enough sporozoite trails to measure to do a statistical analysis of the results. Using ImageJ, circles were fit to trails in multiple images to measure 130-150 trail radii. The average trail radii increased in the presence of compounds 4, 17, and 18 with a p-value <0.0001. The increase in average trail size was 6.3 microns, 2.5 microns, and 3.6, for compounds 4, 17, and 18, respectively.

[2] = biological target: T1, rabbit aldolase (Oryctolagus cuniculus, UniProt P00883); assay: aldolase enzyme activity assay, rabbit aldolase; format: biochemical; conditions: surrogate for human aldolase
T1 sequence (P00883 1-364): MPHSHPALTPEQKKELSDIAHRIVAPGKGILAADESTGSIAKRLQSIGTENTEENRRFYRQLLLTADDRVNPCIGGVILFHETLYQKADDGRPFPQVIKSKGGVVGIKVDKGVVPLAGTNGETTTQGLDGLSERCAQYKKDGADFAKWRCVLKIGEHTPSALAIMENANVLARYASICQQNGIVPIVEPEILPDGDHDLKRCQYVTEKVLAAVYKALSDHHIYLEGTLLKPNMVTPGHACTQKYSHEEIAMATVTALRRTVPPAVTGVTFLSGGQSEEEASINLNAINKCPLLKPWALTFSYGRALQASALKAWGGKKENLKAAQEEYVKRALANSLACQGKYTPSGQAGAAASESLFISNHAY
Excerpt: (§1) FIGS. 16A-16D depict an aldolase enzyme activity assay. (A) Cartoon and surface representation of aldolase with TRAPpep bound (magenta, sticks) (PDB entry 2pc4), overlapping the F16BP (green, sticks) substrate binding site (PDB entry 4ald), via PyMOL. (B) Coupled enzyme assay to measure aldolase activity via NADH consumption as measured at 340 nm. (C) Concentration-dependent effect of compounds on PfAldolase inhibition in the presence of PbTRAP peptide. Activity is normalized to the PbTRAP control, which reduces Vmax to 50% of enzyme without PbTRAP. (D) PfAldolase activity in the presence of compounds to determine direct inhibition of enzyme by the compounds. Activity is normalized to the PfAldolase control measured Vmax. Standard error means plotted for activity assays and standard deviation for SPR data.
(§2) Dose-Dependent Enzymatic Inhibition of Compounds on P. falciparum Aldolase and Rabbit Aldolase as a Surrogate for Human Aldolase.

[3] = biological target: P. falciparum aldolase in the presence of TRAP (Plasmodium falciparum, UniProt Q7KQL9); assay: aldolase enzyme activity assay, P. falciparum aldolase in the presence of TRAP; format: biochemical; conditions: in the presence of TRAP and the compounds
P. falciparum aldolase in the presence of TRAP, sequence (Q7KQL9 whole entry): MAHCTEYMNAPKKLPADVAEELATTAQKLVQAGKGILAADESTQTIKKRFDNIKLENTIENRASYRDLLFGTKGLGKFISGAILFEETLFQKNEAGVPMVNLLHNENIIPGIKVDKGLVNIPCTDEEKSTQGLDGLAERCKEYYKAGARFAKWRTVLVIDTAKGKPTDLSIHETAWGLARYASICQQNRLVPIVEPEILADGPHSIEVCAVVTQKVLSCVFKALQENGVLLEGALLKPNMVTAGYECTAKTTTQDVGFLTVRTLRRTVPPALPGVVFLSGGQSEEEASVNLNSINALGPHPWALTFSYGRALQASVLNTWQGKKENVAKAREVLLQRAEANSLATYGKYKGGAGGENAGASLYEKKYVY
Excerpt: as §1, §2

Compound | increase in average trail size (trail radius) vs DMSO control [1] [microns] | enzyme inhibition on rabbit aldolase [2] | inhibition of P. falciparum aldolase [3]
O=C(Nc1ccc(-c2nc3cc4ccccc4cc3[nH]2)cc1)c1cccc(Br)c1 [Compound 17, 3-bromo-N-[4-(1H-naphtho[2,3-d]imidazol-2-yl)phenyl]benzamide] | 2.5 |  | 
CCN(CC)S(=O)(=O)c1ccc(-c2csc(Nc3ccc(C)c(C)c3)n2)cc1 [Compound 3, 4-{2-[(3,4-dimethylphenyl)amino]-1,3-thiazol-4-yl}-N,N-diethylbenzenesulfonamide hydrobromide] |  | no enzyme inhibition | inhibited

Source: patent US20180087086A1, “CELL EGRESS AND INVASION INHIBITORS AND THEIR USE AS ANTIPARASITICAL AGENTS” (THE JOHNS HOPKINS UNIVERSITY, priority 2015, published 2018)
